Measurements: patent US7476729B2, “Dbait and uses thereof” (Institut Curie, priority 2003, dated 2009)

System: GMA32 cells
Experiment: Clonogenicity (clonal survival) assay in GMA32 cells with irradiation or mitotic inhibitors
Format: cell-based, Chinese hamster
Experimental: The GMA32 Chinese hamster fibroblast cells permissive of DNA breaks were maintained in MEM medium (Gibco) supplemented with 1 mM sodium pyruvate, 2 mM glutamine, 1×MEM non essential amino acids, 1× penicillin/streptomycin and 10% horse serum. Typically, 2×10^5 to 4×10^5 cells were seeded in medium without antibiotics, in 5 cm diameter Petri dishes 24 hours before the transfection of different Dbait molecules (4.5 μg) with lipofectamine 2000 (LifeTechnologies) as transfection agent (in a 1:3 ratio), according to the manufacturer's instructions. At the end of the transfection the cells were either irradiated (4 Gy) or treated with mitotic inhibitors: nocodazole (200 nM), navelbine (100 nM) or taxol (200 nM).
About 16 hour later the drug was removed and the cells were allowed to recover. Cell irradiation was performed with γ-rays from a ^137Cs source. After a 24 hours recovery, the cells were collected and used either for FACS, western blot analyses or to determine the clonogenicity (survival) and the effect of each treatment.
The effect of radiosensitization and chemosensitization of Dbait molecules in GMA32 cells was evaluated by clonogenicity (clonal survival) assay. For the clonogenicity assay, serial dilutions were made after counting the cells to seed 5 cm Petri dishes with different amounts of cells. The number of cells range from 100-200 (control cells) to 3000 (transfected or/and treated cells). Ten days after, the cells (forming clone) were fixed with 4% paraformaldehyde (20 minutes), then colored with methylene blue (15 minutes), and the number of clone in each plate (in triplicates) was scored.
These drugs are known as potent inhibitors of either polymerization or depolymerization of microtubules. Dbait32 (SEQ ID NO: 1) and Dait32H (SEQ ID NO: 1) were able to enhance to cytotoxic activity of these mitotic inhibitors.

Substance: Dbait32H: hairpin double strand DNA with a stem of 32-bp, hexaethyleneglycol linker, phosphorothioate at the free blunt end (DNA ACGCACGGGTGTTGGGTCGTTTGTTCGGATCT; DNA, backbone not given here; hairpin, hexaethyleneglycol loop, 3-bp phosphorothioate at free blunt end)
- chemosensitization (clonal survival) (GMA32, 200 nM nocodazole, 100 nM navelbine (vinorelbine) or 200 nM taxol (paclitaxel)): chemosensitization was also observed
- radiosensitization (clonal survival) (GMA32, 4 Gy irradiation): radiosensitization to 4 Gy irradiation was observed
